Reference: patent US8791163B2 (McGill University, priority 2006, dated 2014)
“And” between values parts separate entries of the source, which are not always exact repeats. Equal entries are not always repeated.

How the values were obtained:
[1] = tested on: Male rats (Sprague-Dawley); assay: EEG and EMG sleep recordings (slow wave sleep, REM sleep, wakefulness); assay type: in vivo, rat; conditions: 5b 40 mg/kg s.c.; individual rats 1-11
Experimental: Male rats (Sprague-Dawley) weighing approximately 300-340 g were used for surgical implantation of electroencephalogram (EEG) and electromyogram (EMG) electrodes. Following the recovery from surgery, the animals were housed separately in cages and kept on a 12-hour light/dark cycle (12 h light-12 h dark, 7:30 AM lights on) at a controlled temperature (21° C.). The rats had free access to food and water ad libitum.
Rats were anaesthetized using equithesin (425 mg chloral hydrate, 1 ml 100% ethanol, 98 mg pentobarbitone, 213 mg magnesium sulphate and 3 ml propylene glycol, sterile water per 10 ml of solution; 1 ml per 300 g body weight i.p.) and placed in a stereotactic frame. The skull was exposed and carefully cleaned. Two stainless-steel epidural electrodes were implanted for the registration of the EEG under stereotactic control, through 1.5 mm burr holes at the coordinates corresponding to the right parietal-occipital cortex (AP=−2 mm L=3 mm; AP=−7 mm L=3 mm) and the left parietal-occipital cortex (AP=−4.5 mm L=3 mm) according to the atlas by Paxinos (The Rat Brain in Stereotaxic Coordinates, Academic Press, 1995). Three stainless steel wire electrodes, isolated except for the last few millimeters, were implanted into the neck muscles (two bilaterally and one in the middle) for the monitoring of the EMG. The EEG epidural electrodes and the EMG wires were fitted to a six-pin female connector. For fixation to the skull, the wires and connector were covered with dental acrylic (Coltene/Whaledent Inc. USA). The animals were allowed to recover from the surgery for at least 3-4 days.
Twenty-four hours (24 h) following the surgery, the rats were placed in the recording room from noon to 9:00 PM, for 3-4 days. The rats were connected to the 6-flat cable (3M), in a freely-moving manner, from 6:00 PM to 9:00 PM for habituation. No recordings were performed at this time, however, the tolerance to the cable and the sleep behavior were observed.
Following 3-4 days of habituation, the rats received the injection of a vehicle (DMSO/saline 7:3, 0.2 ml s.c.) at 6:00 PM and the recording was carried out until 9:00 PM. On the following day the rats received diazepam (2 mg/kg, s.c.) at 6:00 PM and the recording was performed until 9:00 PM. Four days following the injection of diazepam, the rat received 5b (40 mg/kg s.c.) and the recording also performed from 6 to 9 PM.
For each experiment, a rat was placed individually in the cage and monitoring of the signal was carried out via the attachment of a non-restraining 6-wire flat cable and a female connector, which was connected to an impedance transformer with a gain of 10, located above the cage. The EEG signal was amplified (resulting in a total gain of 10,000) and locally filtered. The EMG signal was amplified as the EEG, (EEG: low filter 1.0 Hz; high 1 KHz, EMG: low filter 30.0 Hz; high 3 KHz). The power spectra analysis was performed for identification of the sleep stages. The behavior of the animals was observed during the experiment (eye movements, ambulation, rearing etc.).
The three classical vigilance-sleep states described in the rat were discriminated on the basis of the cortical EEG and neck EMG, following the classification by Ruigt et al. (Electroencephalography and clinical Neurophysiology, 1989, 73: 52-63). Wakefulness was identified by a low-amplitude and desynchronized EEG with sustained EMG activity. Slow wave sleep (SWS, includes Quiet sleep, deep sleep and Pre-REM) was clearly distinguished by high-voltage delta waves (2-4 Hz) and spindles associated with a […] EMG activity. Pre-REM sleep was characterized by a clear theta rhythm in the EEG, frequently alternating with short lasting, high voltage spindles. REM sleep was characterized by a low-amplitude EEG with a pronounced theta rhythm (5.5-8.5 Hz), a complete loss of muscle tone, and a low voltage EMG. […]

[2] = molecular target: T1, cloned human MT2 receptors (Homo sapiens, UniProt P49286); assay: 2-[125I]iodomelatonin competition binding, human MT2 in NIH3T3 cells; conditions: human recombinant receptors expressed in NIH3T3 cells
T1 construct: expressed in transfected cells
T1 sequence (P49286 1-362): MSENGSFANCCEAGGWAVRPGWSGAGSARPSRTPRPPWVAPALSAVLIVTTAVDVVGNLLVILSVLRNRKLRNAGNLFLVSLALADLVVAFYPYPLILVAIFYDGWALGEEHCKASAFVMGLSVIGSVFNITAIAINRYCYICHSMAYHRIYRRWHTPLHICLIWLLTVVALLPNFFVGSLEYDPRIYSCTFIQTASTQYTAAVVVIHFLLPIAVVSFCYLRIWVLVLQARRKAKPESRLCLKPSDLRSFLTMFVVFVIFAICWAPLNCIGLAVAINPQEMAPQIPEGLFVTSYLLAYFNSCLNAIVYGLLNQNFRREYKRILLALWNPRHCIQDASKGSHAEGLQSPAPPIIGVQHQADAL
Experimental: Membranes were incubated for 90 min at 37° C. in binding buffer (Tris/HCl 50 mM, pH 7.4). The final membrane concentration was 5-10 μg of protein per tube. […] The pKi values are the mean of at least three independent determinations performed in duplicate. To define the functional activity of the compounds of Formula (I) at the MT1 and MT2 receptor subtypes, [^35S]GTPγS binding assays in NIH3T3 cells expressing human-cloned MT1 or MT2 receptors were performed. The amount of bound [^35S]GTPγS is proportional to the level of analogue-induced G-protein activation and is related to the intrinsic activity of the compound (i.e. a compound of Formula (I)) under study. […] Nonspecific binding was assessed using non-radiolabeled GTPγS (10 μM). […] Basal stimulation is the amount of [^35S]GTPγS specifically bound in the absence of the compounds of Formula (I) and was taken as 100%. […] All of the measurements were performed in triplicate.

SMILES: COc1cccc(N(CCNC(C)=O)c2ccccc2)c1 [5b, N-{2-[(3-Methoxyphenyl)-phenylamino]ethyl}acetamide]
- REM Sleep Duration [1]: 8.66 min and 7.04 min and 13.89 min and 4.96 min and 8.51 min and 11.6 min and 5.61 min and 7.2 min and 11.18 min and 11.76 min and 9.48 min
- REM Sleep Latency [1]: 76.1 min and 62.31 min and 60.92 min and 109.5 min and 86.49 min and 71.16 min and 80.13 min and 101.41 min and 80.26 min and 54.26 min and 43.83 min
- REM Sleep Mean of a Single Episode [1]: 1.237 min and 1.76 min and 1.54 min and 1.65 min and 1.063 min and 1.933 min and 1.402 min and 2.4 min and 2.23 min and 1.68 min and 1.896 min
- REM Sleep Number (episodes) [1]: 7 episodes (2×) and 4 episodes (2×) and 9 episodes and 3 episodes (2×) and 8 episodes and 6 episodes and 5 episodes (2×)
- Slow Wave Sleep Duration [1]: 110.29 min and 73.51 min and 87.14 min and 92.65 min and 89.42 min and 80.00 min and 88.47 min and 79.1 min and 85.8 min and 80.84 min and 104.2 min
- Slow Wave Sleep Latency [1]: 15.73 min and 2.73 min and 1.05 min and 11.9 min and 10.85 min and 23.2 min and 25.9 min and 17.62 min and 5.05 min and 25.12 min and 17.24 min
- Slow Wave Sleep Mean of a Single Episode [1]: 5.01 min and 2.53 min and 3 min and 3.3 min and 3.43 min and 4.21 min and 2.6 min and 2.26 min and 6.12 min and 7.34 min and 7.44 min
- Slow Wave Sleep Number (episodes) [1]: 22 episodes and 29 episodes (2×) and 28 episodes and 26 episodes and 19 episodes and 34 episodes and 35 episodes and 14 episodes (2×) and 11 episodes
- Wakefulness Duration [1]: 82.38 min and 82.05 min and 88.37 min and 85.99 min and 93.61 min and 83.69 min and 87.41 min and 90.48 min and 61.05 min and 92.11 min and 78.94 min
- Wakefulness Mean of a Single Episode [1]: 3.39 min and 3.54 min and 3.28 min and 2.94 min and 3.56 min and 4.9 min and 2.38 min and 2.75 min and 6.43 min and 14.56 min and 7.54 min
- Wakefulness Number (episodes) [1]: 18 episodes (2×) and 26 episodes and 24 episodes and 28 episodes and 23 episodes and 36 episodes and 34 episodes and 13 episodes and 6 episodes and 12 episodes
- higher affinity for the MT2 than for the MT1 subtype [2]: ~100 fold
